Measured values published in paper PMC6302136, “Quantitative Chemotherapeutic Profiling of Gynecologic Cancer Cell Lines Using Approved Drugs and Bioactive Compounds^” (Translational Oncology, 2018).
Like-named read-outs stand apart in the source and are kept apart here. *1 amine or outer side, *2 acyl side, *3 side chain or, on linkers, in order; H or OH if unused. Where a SMILES comes first, the peptide text is derived from it. Bridges are numbered along the chain shown (N, C = ends). Roman numbers before positions name the chains, in order. [ ]: non-standard residue; d: D form. Actinocin(9to1) = Cc1c2oc3c(C)ccc(C(=O)[*:1])c3nc-2c(C(=O)[*:2])c(N)c1=O; NMeV = CN[C@H](C(=O)O)C(C)C; Sar = CNCC(=O)O

Key:
[1] = test system: ovarian and placental cancer cell lines; assay: qHTS ATPlite cell viability, ovarian + placental cancer cell lines; type: cell-based, human; details: for IC50: Homo sapiens, 48 h; for Average SI: vs HEK 293T, >100 = inactive in HEK293T
Description: (§1) The ATPlite luminescence assay system assay kit was used to determine cell viability. The reagent was reconstituted and prepared as described by the manufacturer. To measure the cell death caused by the compounds, cells were cultured in 4 μl of media for 16 hours at 37°C with 5% CO2 in assay plates, followed by the addition of DMSO or 16 SOC chemotherapeutic compounds dissolved in DMSO. SOC compounds were dosed at 11 concentrations (1:3 dilution) in quadruplicate from 57.5 μM to 0.977 nM using the automated Wako 1536 Pin Tool workstation and incubated at 37°C with 5% CO2 for 24, 48, or 72 hours. Four microliters of ATPlite, the ATP monitoring reagent, was then added to each well of the assay plates using the Multidrop Combi reagent dispenser followed by incubation for 15 minutes at room temperature. The resulting luminescence was measured using the ViewLux plate reader. Data were normalized for each drug using the largest luminescence value as 100% full cell viability (0% cell killing) and to the smallest luminescence value 0% viability (100% cell killing).
(§2) A qHTS [79], in which each compound was assayed in five concentrations (0.092, 0.46, 2.3, 11.5, and 57.5 μM), was performed for the primary compound screen using the NPC [80] and NPACT drug libraries at NCATS. The OBGYN cancer and HEK 293T control cells were seeded into 1536-well assay plates at 1000 cells per 4 μl/well and incubated at 37°C in 5% CO2 for 48 hours. The ATPlite assay to determine the IC50 values for each compound was conducted as described above. Plates were processed on the fully integrated Kalypsys robotic system.

[2] = test system: 11 gynecologic cancer cell lines; assay: qHTS ATPlite cell viability, gynecologic cancer cell lines (ovarian, cervical, placental); type: cell-based, human; details: for IC90 / IC50: Homo sapiens; for Cell Lines Active: number of the 11 cancer cell lines in which the compound is active (<1 μM potency, >70% efficacy)
Description: as §1, §2

[3] = cited from earlier work
[4] = test system: ovarian and cervical cancer cell lines; assay: qHTS ATPlite cell viability, ovarian + cervical cancer cell lines; type: cell-based, human; details: Ovarian + cervical cancer cell line killer
Description: A qHTS [79], in which each compound was assayed in five concentrations (0.092, 0.46, 2.3, 11.5, and 57.5 μM), was performed for the primary compound screen using the NPC [80] and NPACT drug libraries at NCATS. […]

CAOV-3 cells = assay: ATP content (ATPlite) cell viability assay in CAOV-3 cells; type: cell-based, human; details: assay optimization
Description: as §1

PA-1 cells = assay: ATP content (ATPlite) cell viability assay in PA-1 cells; type: cell-based, human; details: assay optimization, read-out: IC50 (PA-1)
HDAC 1/2/3 = details: against HDAC 1/2/3 only; cited from earlier work
[5] = test system: ovarian cancer cell lines; assay: qHTS ATPlite cell viability, ovarian cancer cell lines; type: cell-based, human
TOV-21-G cells = assay: qHTS ATPlite cell viability, TOV-21-G cells; type: cell-based, human; details: for IC50: Homo sapiens, TOV21G, 48 h; for Avg SI: TOV-21-G selective compounds, vs HEK 293T, >100 = inactive in HEK293T
HDAC 1/2/3/11 = details: inhibits only HDAC 1/2/3/11; cited from earlier work
[6] = test system: placental cancer cell lines (JAR, JEG-3); assay: qHTS ATPlite cell viability, placental cancer cell lines; type: cell-based, human; details: Homo sapiens, JEG-3; read-out: IC50 for the placental lines
Description: as §1
The ATPlite assay to determine the IC50 values for each compound was conducted as described above. Plates were processed on the fully integrated Kalypsys robotic system.

[7] = test system: cervical cancer cell lines (HeLa, Ca Ski, C-33 A); assay: qHTS ATPlite cell viability, cervical cancer cell lines; type: cell-based; details: Homo sapiens
HEK 293T cells [8] = assay: cells; details: 48 h
Description: as §1, §2

HEK 293T cells [9] = test system: HEK 293T cells; set-up: method as in PMID 31498718; details: CellTiterGlo, cited from earlier work
[10] = Ovarian + placental cancer cell line killer
[11] = average IC90 over the cell lines in which the compound is active, read-out: IC90
[12] = Pan-GYN cancer cell line killer, vs HEK 293T, >100 = inactive in HEK293T (efficacy <50%)

Question: For `Cc1c2oc3c(C)ccc(C(=O)N[C@@H]4C(=O)N[C@H](C(C)C)C(=O)N5CCC[C@H]5C(=O)N(C)CC(=O)N(C)[C@@H](C(C)C)C(=O)O[C@@H]4C)c3nc-2c(C(=O)N[C@@H]2C(=O)N[C@H](C(C)C)C(=O)N3CCC[C@H]3C(=O)N(C)CC(=O)N(C)[C@@H](C(C)C)C(=O)O[C@@H]2C)c(N)c1=O` [Actinomycin D] (I: T[dV]P[Sar][NMeV] / II: T[dV]P[Sar][NMeV]; ester I:1-I:C, II:1-II:C; linker I:N-II:N via Actinocin(9to1)), which IC50 ([1]; read-out: Average IC50 (μM)) is on record?
Answer: Its IC50 is 0.78 ± 0.222 µM.

Question: What about the “Average SI” value [1, 10] of the same compound?
Answer: Its value is greater than 100.

Question: And the “Average SI” value ([1]; Ovarian + placental cancer cell line killer, listed as actinomycin D)?
Answer: The value was greater than 100.

Question: What about the IC90 ([2]; read-out: average IC90) of the same compound?
Answer: Its IC90 is 512 nM.

Question: Which Cmax ([3]; intravenous dose, read-out: Cmax) does the source give for `CC(C)C[C@H](NC(=O)[C@H](Cc1ccccc1)NC(=O)c1cnccn1)B(O)O` [Bortezomib] here?
Answer: Its Cmax is 580 nM.

Question: And the IC90 [2, 11]?
Answer: Its IC90 is 218 nM.

Question: What about the IC50 ([2]; average over the cell lines in which the compound was active, read-out: average IC50) of the same compound?
Answer: Its IC50 is 0.15 µM.

Question: What about the “Cell Lines Active” value [2] of the same compound?
Answer: Its value is 8.

Question: For `Cc1cc(CN2CCN(c3c(Br)cnc4nc(-c5ccc(N6CCN(C)CC6)cc5)[nH]c34)CC2)no1` [CCT137690], which IC50 ([4]; mean of cell lines fulfilling criteria, 48 h) is on record?
Answer: The IC50 was 20000 ± 7020 nM.

Question: And the “Average SI” value ([4]; vs HEK 293T, >100 = inactive in HEK293T)?
Answer: The value was greater than 100.

Question: With `CC(=O)OC(C)(C)/C=C/C(=O)[C@](C)(O)[C@H]1[C@H](O)C[C@@]2(C)[C@@H]3CC=C4[C@H](C[C@H](O)C(=O)C4(C)C)[C@]3(C)C(=O)C[C@]12C` [Curcubitacin B] as the compound, how does the IC50 (CAOV-3 cells; 24 hours incubation) read?
Answer: The IC50 was 18.1 nM.

Question: And the IC50 (CAOV-3 cells; 48 hours incubation)?
Answer: The IC50 was roughly 20.6 nM.

Question: And the IC50 (CAOV-3 cells; 72 hours incubation)?
Answer: The IC50 was 22.2 nM.

Question: And the IC50 (PA-1 cells; 48 hours incubation)?
Answer: The IC50 was 63.2 nM.

Question: And the IC50 (PA-1 cells; 72 hours incubation)?
Answer: Its IC50 is 61.8 nM.

Question: Which Cmax ([3]; humans, 15 mg, read-out: Cmax) does the source give for `Nc1ccccc1NC(=O)c1ccc(CNC(=O)OCc2cccnc2)cc1` [Entinostat] here?
Answer: Its Cmax is 460 nM.

Question: And the IC50 ([2]; Pan-GYN cancer cell line killer, mean of all cell lines fulfilling criteria, 48 h, read-out: Average IC50)?
Answer: The IC50 was 7.11 ± 6.62 µM.

Question: What about the “Average SI” value [2, 12] of the same compound?
Answer: Its value is greater than 100.

Question: And the “Average SI” value ([2]; Pan-GYN cancer cell line killer, vs HEK 293T, >100 = inactive in HEK293T (efficacy <50%), listed as entinostat)?
Answer: Its value is greater than 100.

Question: What about the “potency of HDAC inhibition” value (HDAC 1/2/3) of the same compound?
Answer: The value was “submicromolar potency”.

Question: What does the source list for `Cc1cnc(Nc2ccc(OCCN3CCCC3)cc2)nc1Nc1cccc(S(=O)(=O)NC(C)(C)C)c1` [Fedratinib]?
Answer: IC50 ([1]; Ovarian + placental cancer cell line killer, mean of cell lines fulfilling criteria, read-out: Average IC50): 13.1 ± 7.51 µM; Average SI [1, 10]: >100; Average SI ([1]; Ovarian + placental cancer cell line killer, listed as fedratinib): > 100; selective killing of ovarian cancer lines ([5]; SI of 5 or greater, six ovarian lines): selectivity killed all six ovarian cancer lines

Question: For `CNC(=O)c1nn(C)c2c1C(C)(C)Cc1cnc(Nc3ccc(N4CCN(C)CC4)cc3)nc1-2` [Milciclib, N,1,4,4-tetramethyl-8-{[4-(4-methylpiperazin-1-yl)phenyl]amino}-4,5-dihydro-1H-py razolo[4,3-h]quinazoline-3-carboxamide], which IC50 (TOV-21-G cells; TOV-21-G, confirmation screen, read-out: Avg IC50) is on record?
Answer: Its IC50 is 0.0897 µM.

Question: And the “Avg SI” value (TOV-21-G cells)?
Answer: Its value is 50.1.

Question: Which Cmax ([3]; 10 mg/kg, in humans, read-out: Cmax) does the source give for `Nc1ccccc1NC(=O)c1ccc(CNc2nccc(-c3cccnc3)n2)cc1` [Mocetinostat] here?
Answer: The Cmax was roughly 21400 nM.

Question: And the Cmax ([3]; 40 mg/kg, in humans, read-out: Cmax)?
Answer: The Cmax was 75700 nM.

Question: And the IC50 ([2]; 48 h, read-out: Average IC50 (μM))?
Answer: Its IC50 is 2.76 ± 1.98 µM.

Question: What about the “Average SI” value [2, 12] of the same compound?
Answer: Its value is greater than 100.

Question: What about the “Average SI” value ([2]; Pan-GYN cancer cell line killer, vs HEK 293T, >100 = inactive in HEK293T (efficacy <50%), listed as mocetinostat) of the same compound?
Answer: Its value is greater than 100.

Question: What about the “potency of HDAC inhibition” value (HDAC 1/2/3/11) of the same compound?
Answer: Its value is “low micromolar potency or below”.

Question: Which IC50 (TOV-21-G cells; read-out: Avg IC50 (μM)) does the source give for `CCOc1cc2ncc(C#N)c(Nc3ccc(OCc4ccccn4)c(Cl)c3)c2cc1NC(=O)/C=C/CN(C)C` [Neratinib] here?
Answer: The IC50 was 0.619 µM.

Question: What about the “Avg SI” value (TOV-21-G cells) of the same compound?
Answer: The value was greater than 100.

Question: Which IC50 [6] does the source give for `Cc1[nH]c2ccccc2c1CCNCc1ccc(/C=C/C(=O)NO)cc1` [Panobinostat] here?
Answer: The IC50 was 516 nM.

Question: What about the IC50 [7] of the same compound?
Answer: The IC50 was 224 nM.

Question: And the “Efficacy (%) (HEK 293T toxicity)” value (HEK 293T cells [8]; HEK 293T, this screen (ATPlite))?
Answer: Its value is 82.6%.

Question: And the IC50 (HEK 293T cells [8]; Homo sapiens, HEK-293T, read-out: IC50 (HEK 293T toxicity))?
Answer: The IC50 was 210 nM.

Question: What about the “toxicity to HEK 293T cells” value (HEK 293T cells [8]; human) of the same compound?
Answer: The value was “equally toxic to HEK 293T cells”.

Question: And the “Efficacy (%) (independent screen, HEK 293T)” value (HEK 293T cells [9])?
Answer: Its value is 85.5%.

Question: And the “Independent Screen (confirmation of HEK 293T toxicity)” value (HEK 293T cells [9])?
Answer: The value was “Confirmed toxic”.

Question: And the IC50 (HEK 293T cells [9]; independent screen)?
Answer: The IC50 was 162 nM.

Question: And the Cmax ([3]; oral administration, read-out: Cmax human plasma concentration, range)?
Answer: Its Cmax is 38 to 119 nM.

Question: And the Cmax ([3]; oral administration, read-out: median Cmax human plasma concentration)?
Answer: The Cmax was 61 nM.

Question: What about the IC50 ([5]; Homo sapiens, read-out: IC50 for the ovarian lines) of the same compound?
Answer: The IC50 was 343 nM.

Question: What about the IC90 [2, 11] of the same compound?
Answer: Its IC90 is 719 nM.

Question: What about the IC50 ([2]; toxic compounds, average over all cancer cell lines, 48 h, mean ± S.D., read-out: Average IC50) of the same compound?
Answer: The IC50 was 0.355 ± 0.268 µM.

Question: What about the “Cell Lines Active” value [2] of the same compound?
Answer: The value was 11.

Question: And the “Average SI” value ([2]; toxic compounds, selectivity index vs HEK 293T, average over all cancer cell lines, mean ± S.D.)?
Answer: The value was 0.92 ± 0.57.
